Assay results taken from ChEMBL document CHEMBL3621162, “Virtual Screening and Biological Validation of Novel Influenza Virus PA Endonuclease Inhibitors” (ACS Med Chem Lett, 2015).

How the values were obtained:
[1] = target: Polymerase acidic protein (Influenza A virus (strain A/X-31 H3N2), UniProt Q9IQ47); assay: Inhibition of recombinant Influenza virus A/X-31 N-terminal RdRp PA subunit (1 to 217) expressed in Escherichia coli using single-stranded circular DNA plasmid M13mp18 as substrate after 2 hrs by agarose gel electrophoresis; set-up: species or system Influenza A virus (A/X-31(H3N2))
Influenza A virus [2] = assay: Antiviral activity against Influenza A virus (A/PR/8/1934(H1N1)) infected in HEK293T cells assessed as reduction in viral RNP reconstitution measured at 24 hrs by luciferase reporter gene assay; type: functional, organism-based; conditions: A/Puerto Rico/8/1934(H1N1), HEK-293T
[3] = Cytotoxicity against MDCK cells assessed as cell viability measured at 24 hrs by MTS assay; type: cell-based, Canis lupus familiaris; conditions: dog
Influenza A virus [4] = assay: Antiviral activity against Influenza A virus (A/PR/8/1934(H1N1)) infected in MDCK cells assessed as 2-log10 reduction in viral RNA copy number after 24 hrs by quantitative RT-PCR analysis; type: functional; conditions: A/Puerto Rico/8/1934(H1N1)
[5] = Cytotoxicity against HEK293T cells assessed as cell viability measured at 24 hrs by MTS assay; type: cell-based, HEK-293T; conditions: human
Influenza A virus [6] = assay: Antiviral activity against Influenza A virus (A/PR/8/1934(H1N1)) infected in MDCK cells assessed as 1-log10 reduction in viral RNA copy number after 24 hrs by quantitative RT-PCR analysis; type: functional, organism-based; conditions: A/Puerto Rico/8/1934(H1N1)
Influenza A virus [7] = assay: Potency index, ratio of ribavirin EC99 to compound EC99 for Influenza A virus (A/PR/8/1934(H1N1)) infected in MDCK cells; type: functional, A/Puerto Rico/8/1934(H1N1)
Influenza A virus [8] = assay: Potency index, ratio of ribavirin EC90 to compound EC90 for Influenza A virus (A/PR/8/1934(H1N1)) infected in MDCK cells; type: functional, A/Puerto Rico/8/1934(H1N1)

SMILES: O=C(O)CCc1nn2c(nc1O)nc1ccccc12
- IC50 [1]: > 500 µM

SMILES: O=C(O)/C(O)=C/C(=O)C1(Cc2ccc(Cl)cc2)CCN(Cc2ccccc2)CC1
- EC50 (Influenza A virus [2]): 3.4 µM
- CC50 at 24 h [3]: 181 µM
- EC99 (Influenza A virus [4]): 8.4 µM
- CC50 at 24 h [5]: > 100 µM
- EC50 (Influenza A virus [6]): 5.4 µM
- IC50 [1]: 0.48 µM

SMILES: O=C(NCCCNC(=O)c1cc2cc(O)c(O)cc2[nH]1)c1cc2ccccc2[nH]1
- EC50 (Influenza A virus [2]): 64 µM
- CC50 at 24 h [3]: > 200 µM
- EC99 (Influenza A virus [4]): 73 µM
- CC50 at 24 h [5]: > 200 µM
- EC50 (Influenza A virus [6]): 32 µM
- IC50 [1]: 65 µM

SMILES: O=C(O)c1nccnc1C(=O)Nc1nc(-c2cccs2)n[nH]1
- IC50 [1]: > 500 µM

SMILES: Cc1cc(=O)oc2n[nH]c(C)c12
- IC50 [1]: > 500 µM

SMILES: O=C(O)C1C(C(=O)O)C(C(=O)O)C(C(=O)O)C(C(=O)O)C1C(=O)O (configuration not stated)
- IC50 [1]: > 500 µM

SMILES: CCOC(=O)c1c(O)c2cc(OC)ccc2n(C)c1=O
- IC50 [1]: > 500 µM

SMILES: Cc1nc(SCc2ccccc2)nc(O)c1CC(=O)O
- IC50 [1]: > 500 µM

SMILES: NC(=O)c1ncn([C@@H]2O[C@H](CO)[C@@H](O)[C@H]2O)n1 [RIBAVIRIN]
- EC50 (Influenza A virus [2]): 8.4 µM
- CC50 at 24 h [3]: > 200 µM
- EC99 (Influenza A virus [4]): 11 µM
- CC50 at 24 h [5]: > 200 µM

SMILES: Cc1cc(NC(=O)c2c(O)nc(O)[nH]c2=O)no1
- IC50 [1]: > 500 µM

SMILES: O=C(NCCc1ccc(O)c(O)c1)c1cc2cc(O)c(O)cc2[nH]1
- EC50 (Influenza A virus [2]): 16 µM
- CC50 at 24 h [3]: ≥ 50 µM
- EC99 (Influenza A virus [4]): 5.7 µM
- CC50 at 24 h [5]: 110 µM
- EC50 (Influenza A virus [6]): 3.2 µM
- Ratio (Influenza A virus [7]): 2
- IC50 [1]: 0.94 µM
- Ratio (Influenza A virus [8]): 2

SMILES: COc1cc2nc(N3CCOCC3)nc(N)c2cc1OC
- IC50 [1]: > 500 µM

SMILES: O=C(CC(=O)Nc1ccccc1)NNc1ccc([N+](=O)[O-])cc1
- IC50 [1]: > 500 µM

SMILES: O=C(O)CCc1nnc(SCc2ccc(Cl)cc2)nc1O
- IC50 [1]: > 500 µM

SMILES: CNC(=O)c1cccc(Nc2nc(O)nc(O)c2C#N)c1
- IC50 [1]: > 500 µM

SMILES: O=C(NCCCCNC(=O)c1cc2cc(O)c(O)cc2[nH]1)c1cc2cc(O)c(O)cc2[nH]1
- EC50 (Influenza A virus [2]): 24 µM
- CC50 at 24 h [3]: > 200 µM
- EC99 (Influenza A virus [4]): 12 µM
- CC50 at 24 h [5]: > 200 µM
- EC50 (Influenza A virus [6]): 6.3 µM
- IC50 [1]: 7 µM

SMILES: O=C(O)CC1C(=O)NCCN1CCCc1ccccc1 (configuration not stated)
- IC50 [1]: > 500 µM
